Results published in ChEMBL document CHEMBL4138123, “Design, synthesis and biological evaluation of novel pyrazolochalcones as potential modulators of PI3K/Akt/mTOR pathway and inducers of apoptosis in breast cancer cells” (Eur J Med Chem, 2017).

Assays:
Type in all cases: functional
HOP-62 [1] = experiment: Cytotoxicity against human HOP62 cells assessed as cell growth at 1 uM after 48 hrs by sulforhodamine B assay relative to control; details: HOP-62, 48 h, read-out: Activity
MDA-MB-435 = experiment: Cytotoxicity against human MDA-MB-435 cells assessed as cell growth at 0.1 uM after 48 hrs by sulforhodamine B assay relative to control; details: MDA-MB-435, 48 h, read-out: Activity
HT-29 [2] = experiment: Cytotoxicity against human HT-29 cells assessed as cell growth at 1 uM after 48 hrs by sulforhodamine B assay relative to control; details: HT-29, 48 h, read-out: Activity
IGROV-1 [3] = experiment: Cytotoxicity against human IGROV1 cells assessed as cell growth at 0.1 uM after 48 hrs by sulforhodamine B assay relative to control; details: IGROV-1, 48 h, read-out: Activity
COLO 205 [4] = experiment: Cytotoxicity against human COLO205 cells assessed as cell growth at 0.01 uM after 48 hrs by sulforhodamine B assay relative to control; details: COLO 205, 48 h, read-out: Activity
UO-31 [5] = experiment: Cytotoxicity against human UO31 cells assessed as cell growth at 100 uM after 48 hrs by sulforhodamine B assay relative to control; details: UO-31, 48 h, read-out: Activity
IGROV-1 [6] = experiment: Cytotoxicity against human IGROV1 cells assessed as growth inhibition after 48 hrs by sulforhodamine B assay; details: IGROV-1, 48 h
SR = experiment: Cytotoxicity against human SR cells assessed as cell growth at 0.01 uM after 48 hrs by sulforhodamine B assay relative to control; details: read-out: Activity
UO-31 [7] = experiment: Cytotoxicity against human UO31 cells assessed as cell growth at 0.01 uM after 48 hrs by sulforhodamine B assay relative to control; details: UO-31, 48 h, read-out: Activity
A498 = experiment: Cytotoxicity against human A498 cells assessed as cell growth at 0.1 uM after 48 hrs by sulforhodamine B assay relative to control; details: A498, 48 h, read-out: Activity
NCI-H226 [8] = experiment: Cytotoxicity against human NCI-H226 cells assessed as cell growth at 1 uM after 48 hrs by sulforhodamine B assay relative to control; details: NCI-H226, 48 h, read-out: Activity
U-251 = experiment: Cytotoxicity against human U251 cells assessed as cell growth at 1 uM after 48 hrs by sulforhodamine B assay relative to control; details: U-251, 48 h, read-out: Activity
NCI/ADR-RES [9] = experiment: Cytotoxicity against human NCI/ADR-RES cells assessed as growth inhibition after 48 hrs by sulforhodamine B assay
ACHN = experiment: Cytotoxicity against human ACHN cells assessed as cell growth at 1 uM after 48 hrs by sulforhodamine B assay relative to control; details: read-out: Activity
MDA-MB-468 = experiment: Cytotoxicity against human MDA-MB-468 cells assessed as growth inhibition after 48 hrs by sulforhodamine B assay; details: MDA-MB-468, 48 h
CCRF-CEM = experiment: Cytotoxicity against human CCRF-CEM cells assessed as growth inhibition after 48 hrs by sulforhodamine B assay
HT-29 [10] = experiment: Cytotoxicity against human HT-29 cells assessed as cell growth at 100 uM after 48 hrs by sulforhodamine B assay relative to control; details: HT-29, 48 h, read-out: Activity
Malme-3M = experiment: Cytotoxicity against human MALME-3M cells assessed as cell growth at 0.01 uM after 48 hrs by sulforhodamine B assay relative to control; details: read-out: Activity
SK-MEL-5 = experiment: Cytotoxicity against human SK-MEL-5 cells assessed as cell growth at 0.01 uM after 48 hrs by sulforhodamine B assay relative to control; details: SK-MEL-5, 48 h, read-out: Activity
UO-31 [11] = experiment: Cytotoxicity against human UO31 cells assessed as cell growth at 0.1 uM after 48 hrs by sulforhodamine B assay relative to control; details: UO-31, 48 h, read-out: Activity
NCI-H23 = experiment: Cytotoxicity against human NCI-H23 cells assessed as growth inhibition after 48 hrs by sulforhodamine B assay; details: NCI-H23, 48 h; for CC50: read-out: LC50 (the source's name)
COLO 205 [12] = experiment: Cytotoxicity against human COLO205 cells assessed as growth inhibition after 48 hrs by sulforhodamine B assay; details: COLO 205, 48 h
NCI-H226 [13] = experiment: Cytotoxicity against human NCI-H226 cells assessed as cell growth at 0.1 uM after 48 hrs by sulforhodamine B assay relative to control; details: NCI-H226, 48 h, read-out: Activity
MDA-MB-231 = experiment: Cytotoxicity against human MDA-MB-231 cells assessed as growth inhibition after 48 hrs by sulforhodamine B assay; details: MDA-MB-231, 48 h
OVCAR-4 = experiment: Cytotoxicity against human OVCAR4 cells assessed as cell growth at 1 uM after 48 hrs by sulforhodamine B assay relative to control; details: OVCAR-4, 48 h, read-out: Activity
HOP-62 [14] = experiment: Cytotoxicity against human HOP62 cells assessed as cell growth at 0.1 uM after 48 hrs by sulforhodamine B assay relative to control; details: HOP-62, 48 h, read-out: Activity
NCI/ADR-RES [15] = experiment: Cytotoxicity against human NCI/ADR-RES cells assessed as cell growth at 10 uM after 48 hrs by sulforhodamine B assay relative to control; details: read-out: Activity
NCI-H322M = experiment: Cytotoxicity against human NCI-H322M cells assessed as cell growth at 0.01 uM after 48 hrs by sulforhodamine B assay relative to control; details: read-out: Activity
M14 = experiment: Cytotoxicity against human M14 cells assessed as cell growth at 10 uM after 48 hrs by sulforhodamine B assay relative to control; details: M14, 48 h, read-out: Activity
PC-3 = experiment: Cytotoxicity against human PC3 cells assessed as cell growth at 10 uM after 48 hrs by sulforhodamine B assay relative to control; details: PC-3, 48 h, read-out: Activity
Hs-578T = experiment: Cytotoxicity against human Hs 578T cells assessed as cell growth at 1 uM after 48 hrs by sulforhodamine B assay relative to control; details: read-out: Activity
HT-29 [16] = experiment: Cytotoxicity against human HT-29 cells assessed as cell growth at 10 uM after 48 hrs by sulforhodamine B assay relative to control; details: HT-29, 48 h, read-out: Activity
MCF7 = experiment: Cytotoxicity against human MCF7 cells assessed as cell growth at 100 uM after 48 hrs by sulforhodamine B assay relative to control; details: MCF7, 48 h, read-out: Activity
BT-549 = experiment: Cytotoxicity against human BT549 cells assessed as cell growth at 0.01 uM after 48 hrs by sulforhodamine B assay relative to control; details: BT-549, 48 h, read-out: Activity
HL-60(TB) = experiment: Cytotoxicity against human HL-60(TB) cells assessed as growth inhibition after 48 hrs by sulforhodamine B assay; details: HL-60, 48 h
KM12 = experiment: Cytotoxicity against human KM12 cells assessed as growth inhibition after 48 hrs by sulforhodamine B assay; details: KM12, 48 h

## COc1cc(C(=O)/C=C/c2cc(-c3cc(OC)c(OC)c(OC)c3)n[nH]2)cc(OC)c1OC
HOP-62 [1]
  growth at 1 µM: 78%
MDA-MB-435
  growth at 0.1 µM: 94%
HT-29 [2]
  growth at 1 µM: 96%
IGROV-1 [3]
  growth at 0.1 µM: 103%
COLO 205 [4]
  growth at 0.01 µM: 103%
UO-31 [5]
  growth at 100 µM: -100%
IGROV-1 [6]
  LC50: 33.1 µM
  TGI: 10.2 µM
SR
  growth at 0.01 µM: 111%
UO-31 [7]
  growth at 0.01 µM: 90%
A498
  growth at 0.1 µM: 90%
NCI-H226 [8]
  growth at 1 µM: 86%
U-251
  growth at 1 µM: 83%
NCI/ADR-RES [9]
  LC50: > 100 µM
  TGI: 21.4 µM
ACHN
  growth at 1 µM: 89%
MDA-MB-468
  GI50: 1.15 µM
  LC50: 5.37 µM
  TGI: 2.48 µM
CCRF-CEM
  LC50 (concentration killing 50% of cells): > 100 µM
HT-29 [10]
  growth at 100 µM: -58%
Malme-3M
  growth at 0.01 µM: 100%
SK-MEL-5
  growth at 0.01 µM: 96%
UO-31 [11]
  growth at 0.1 µM: 90%
NCI-H23
  TGI: 9.9 µM
  CC50: 64.3 µM
COLO 205 [12]
  LC50: 5.59 µM
  TGI: 3.13 µM
NCI-H226 [13]
  growth at 0.1 µM: 93%
MDA-MB-231
  LC50: 9.51 µM
  TGI: 3.8 µM
OVCAR-4
  growth at 1 µM: 79%
HOP-62 [14]
  growth at 0.1 µM: 94%
NCI/ADR-RES [15]
  growth at 10 µM: 12%
NCI-H322M
  growth at 0.01 µM: 96%
M14
  growth at 10 µM: -90%
PC-3
  growth at 10 µM: -69%
Hs-578T
  growth at 1 µM: 80%
HT-29 [16]
  growth at 10 µM: -86%
MCF7
  growth at 100 µM: -72%
BT-549
  growth at 0.01 µM: 102%
HL-60(TB)
  LC50: > 100 µM
  TGI: 5.52 µM
KM12
  LC50: 5.77 µM
  TGI: 2.93 µM

## COc1ccc(C(=O)/C=C/c2cc(-c3ccc(OC)c(OC)c3)n[nH]2)cc1OC
HOP-62 [1]
  growth at 1 µM: 73%
MDA-MB-435
  growth at 0.1 µM: 94%
HT-29 [2]
  growth at 1 µM: 63%
IGROV-1 [3]
  growth at 0.1 µM: 104%
COLO 205 [4]
  growth at 0.01 µM: 90%
UO-31 [5]
  growth at 100 µM: -68%
IGROV-1 [6]
  GI50: 3.13 µM
  TGI: 53.8 µM
SR
  growth at 0.01 µM: 94%
UO-31 [7]
  growth at 0.01 µM: 89%
A498
  growth at 0.1 µM: 81%
NCI-H226 [8]
  growth at 1 µM: 77%
U-251
  growth at 1 µM: 62%
NCI/ADR-RES [9]
  GI50: 3.43 µM
  TGI: 33.1 µM
ACHN
  growth at 1 µM: 76%
MDA-MB-468
  GI50: 1.09 µM
  TGI: 2.55 µM
CCRF-CEM
  GI50: 0.364 µM
  TGI: 5.52 µM
HT-29 [10]
  growth at 100 µM: -39%
Malme-3M
  growth at 0.01 µM: 99%
SK-MEL-5
  growth at 0.01 µM: 96%
UO-31 [11]
  growth at 0.1 µM: 91%
NCI-H23
  GI50: 2.25 µM
  TGI: 5.7 µM
  CC50: > 100 µM
COLO 205 [12]
  GI50: 1.55 µM
  TGI: 3.1 µM
NCI-H226 [13]
  growth at 0.1 µM: 88%
MDA-MB-231
  GI50: 1.88 µM
  TGI: 6.38 µM
OVCAR-4
  growth at 1 µM: 72%
HOP-62 [14]
  growth at 0.1 µM: 84%
NCI/ADR-RES [15]
  growth at 10 µM: 16%
NCI-H322M
  growth at 0.01 µM: 104%
M14
  growth at 10 µM: -58%
PC-3
  growth at 10 µM: 5%
Hs-578T
  growth at 1 µM: 87%
HT-29 [16]
  growth at 10 µM: -28%
MCF7
  growth at 100 µM: -40%
BT-549
  growth at 0.01 µM: 84%
HL-60(TB)
  GI50: 2.76 µM
  TGI: > 100 µM
KM12
  GI50: 0.625 µM
  TGI: 2.08 µM

## COc1ccc(C(=O)/C=C/c2cc(-c3cc(OC)c(OC)c(OC)c3)n[nH]2)cc1OC
HOP-62 [1]
  growth at 1 µM: 77%
MDA-MB-435
  growth at 0.1 µM: 92%
HT-29 [2]
  growth at 1 µM: 88%
IGROV-1 [3]
  growth at 0.1 µM: 96%
COLO 205 [4]
  growth at 0.01 µM: 107%
UO-31 [5]
  growth at 100 µM: -96%
IGROV-1 [6]
  LC50: 6.48 µM
  TGI: 3.41 µM
SR
  growth at 0.01 µM: 100%
UO-31 [7]
  growth at 0.01 µM: 86%
A498
  growth at 0.1 µM: 86%
NCI-H226 [8]
  growth at 1 µM: 89%
U-251
  growth at 1 µM: 65%
NCI/ADR-RES [9]
  LC50: > 100 µM
  TGI: 15.7 µM
ACHN
  growth at 1 µM: 91%
MDA-MB-468
  GI50: 0.75 µM
  LC50: 5.21 µM
  TGI: 2.18 µM
CCRF-CEM
  LC50 (concentration killing 50% of cells): > 100 µM
  TGI: 3.93 µM
HT-29 [10]
  growth at 100 µM: -81%
Malme-3M
  growth at 0.01 µM: 95%
SK-MEL-5
  growth at 0.01 µM: 97%
UO-31 [11]
  growth at 0.1 µM: 87%
NCI-H23
  TGI: 5.24 µM
  CC50: 22.7 µM
COLO 205 [12]
  LC50: 5.92 µM
  TGI: 3.21 µM
NCI-H226 [13]
  growth at 0.1 µM: 97%
MDA-MB-231
  LC50: 6.32 µM
  TGI: 3.06 µM
OVCAR-4
  growth at 1 µM: 70%
HOP-62 [14]
  growth at 0.1 µM: 100%
NCI/ADR-RES [15]
  growth at 10 µM: 10%
NCI-H322M
  growth at 0.01 µM: 94%
M14
  growth at 10 µM: -72%
PC-3
  growth at 10 µM: -88%
Hs-578T
  growth at 1 µM: 91%
HT-29 [16]
  growth at 10 µM: -94%
MCF7
  growth at 100 µM: -66%
BT-549
  growth at 0.01 µM: 95%
HL-60(TB)
  LC50: 80.2 µM
  TGI: 4.18 µM
KM12
  LC50: 5.43 µM
  TGI: 2.41 µM
